What was measured:
Type in all cases: cell-based
[1] = system: Gamma Delta T cells; assay: Proliferation rate of Gamma Delta T cells on ex vivo stimulation of MNC; settings: changed stimulant vs standard protocol; zoledronate pulse 100 μM 4 h (day 7); IL-15 10 ng/ml, IL-2 1000 U/ml
Experimental: Cell cultures were performed with peripheral blood obtained from healthy adult donors. Peripheral blood mononuclear cells (MNC) were isolated by density gradient centrifugation with Biocoll (Biochrom, Darmstand, Germany/Bio&SELL, Feucht, Germany). MNC were incubated up to 17 days at 37° C. and 5% CO2.
For cultivation, MNC at a concentration of 5.0E+05/ml were cultured in 50 ml cell culture flasks (Sarstedt, Nuembrecht, Germany) using medium consisting of OpTmizer™ CTSTM T-Cell Expansion Basal Medium, OpTmizer™ CTSTM T-Cell Expansion Supplement (Gibco/Thermo Fisher, Waltham, USA) and 1% 200 mM L-Glutamin. 10 μM Zoledronate were added on day 0 and 1000 U/ml IL-2 were added on day 2. On days 4, 7, 9, 11 and 14 half of the medium was removed and replaced by fresh medium containing 2× 1000 U/ml IL-2 for a final concentration of 1000 U/ml. Cells were not split at any time. From day 4 on cell culture flasks were shaken at 250 rpm. For pulsing zoledronate, 100 μM Zol were added on day 0. […]
Cell counts and cell viability were established using a hemocytometer and the trypan blue exclusion method. Cell count and proliferation rate of Gamma Delta T cells was calculated on the basis of the cell number of the MNC and the percentage of Gamma Delta T cells on the MNC determined by flow cytometry. […]

[2] = system: tumor cell line Daudi; assay: Cytotoxicity assay
Text: To directly determine the anti-tumor activity of Gamma Delta T cells against the tumor cell line Daudi, the present inventors performed a cytotoxicity assay on day 10 of cultivation comparing the prior art (R10F) and preferred embodiment of the present invention (Ko-Op). For this, Alpha Beta T cells and NKp46+ cells were paramagnetically depleted from the cell suspension in order to isolate the Gamma Delta T cells on day 10. The cell composition before and after depletion is shown FIG. 2A.
The present inventors next performed the cytotoxicity assay with the different cultivated MNC. To be able to compare the methods more clearly, the present inventors calculated the lytic units per 10^6 effector cells.

[3] = system: cytoplasmic perforin of Gamma Delta T cells; assay: Cytoplasmic perforin staining, flow cytometry
Experimental: To evaluate the activity of stimulated Gamma Delta T cells, cytoplasmic perforin and IFN γ were stained every three to four days and Δ MFI was measured by flow cytometry.

[4] = system: Gamma Delta T cells; assay: Differentiation of Gamma Delta T cells by CD45RA and CD27 expression
Text: The present inventors divided the T cells into naive, central memory, effector memory and terminally differentiated Gamma Delta T cells based on expression of CD45RA and CD27.

[5] = changed stimulant vs standard protocol, without combination of modifications
[6] = IL-15 instead of IL-2, combined with pulsing zoledronate
[7] = changed stimulant vs standard protocol

Compound	proliferation rate of Gamma Delta T cells [1]	lytic units per 10^6 effector cells ([2]; with zoledronate pulse, without antibody, vs zoledronate pulse without modification of the interleukins)	cytoplasmic perforin ([3]; IL-15 instead of IL-2, with zoledronate pulse)	cytoplasmic perforin [3, 5]	percentage of effector Gamma Delta T cells (TEM) ([4]; IL-15 instead of IL-2)	percentage of central memory Gamma Delta T cells (TCM) [4, 6]	percentage of effector Gamma Delta T cells (TEM) [4, 6]	percentage of central memory Gamma Delta T cells (TCM) [4, 7]	lytic units per 10^6 effector cells ([2]; without therapeutic antibodies, vs standard protocol)
IL-15: interleukin used at 10 ng/ml in place of IL-2	significantly lower	an increase	significant reduction	significant reduction	reduced percentage	elevated percentage	reduced percentage	elevated percentage	–
O=P(O)(O)C(O)(Cn1ccnc1)P(=O)(O)O [zoledronate, reference compound]	significant lower proliferation rate	–	–	did not lead to any significant change	–	–	–	more TCM	significant increase

From patent publication US20240344026A1, “Methods to Activate Gamma Delta T cells for Antibody Dependent Cellular Cytotoxicity” (Intellistem, Inc., priority 2023, published 2024)
